pIC50: −log10 of the molar value.
Test system: human childhood brain tumor cell lines (PFSK-1)
Assay: Growth inhibitory activity against PFSK-1 cells (WST-8, Cell Counting Kit-8)
Type: cell-based
Settings: 3 days incubation with test compound, WST-8 OD 450/630 nm, read-out: IC50 (concentration inhibiting 50% of the cell growth)
Outline: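 Cells seeded in RPMI 1640 with 10% FBS and preincubated 24 h at 37 °C, 5% CO2, then exposed to compound for 3 days. IC50 (nM) from growth relative to untreated control.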

Row | pIC50 | Compound
1 | 8.54 | CC1CC(=O)NN=C1c1ccc(OC[C@H]2C[C@@H]2CO)c(Cl)c1F (relative stereo) [Example 156, 6-(3-Chloro-2-fluoro-4-{[(1S*,2S*)-2-(hydroxymethyl)cyclopropyl]methoxy}phenyl)-5-methyl-4,5-dihydro-2H-pyridazin-3-one]

Same assay, conditions: Homo sapiens, 72 h, 3 days incubation with test compound, WST-8 OD 450/630 nm, read-out: IC50 (concentration inhibiting 50% of the cell growth)

Row | Compound | pIC50
2 | Cc1cc(C2=NNC(=O)CC2C)cc(C)c1OCCCO (stereo not drawn) [Example 14, 6-[4-(3-Hydroxypropoxy)-3,5-dimethylphenyl]-5-methyl-4,5-dihydro-2H-pyridazin-3-one] | 8.10
3 | Cc1c(OCCCO)ccc(C2=NNC(=O)C[C@H]2C)c1O [Example 178, (5R)-(−)-6-[2-hydroxy-4-(3-hydroxypropoxy)-3-methylphenyl]-5-methyl-4,5-dihydro-2H-pyridazin-3-one] | 8.34
4 | C[C@@H]1CC(=O)NN=C1c1ccc(OCCCCO)c(Cl)c1O [Example 180, (5R)-(−)-6-[3-chloro-2-hydroxy-4-(4-hydroxybutoxy)phenyl]-5-methyl-4,5-dihydro-2H-pyridazin-3-one] | 8.19
5 | CC1CC(=O)NN=C1c1ccc(OCC2(O)CC2)c(Cl)c1O (stereo not drawn) [Example 174, 6-{3-Chloro-2-hydroxy-4-[(1-hydroxycyclopropyl)methoxy]phenyl}-5-methyl-4,5-dihydro-2H-pyridazin-3-one] | 8.38
6 | Cc1cc(C2=NNC(=O)CC2C)cc(F)c1OCC1(O)CC1 (stereo not drawn) [Example 45, 6-{3-Fluoro-4-[(1-hydroxycyclopropyl)methoxy]-5-methylphenyl}-5-methyl-4,5-dihydro-2H-pyridazin-3-one] | 8.14
7 | CC1CC(=O)NN=C1c1cc(F)c(OCC(C)(C)CCO)c(Cl)c1 (stereo not drawn) [Example 99, 6-[3-chloro-5-fluoro-4-(4-hydroxy-2,2-dimethylbutoxy)phenyl]-5-methyl-4,5-dihydro-2H-pyridazin-3-one] | > 9.00
8 | CC1CC(=O)NN=C1c1ccc(OCC(C)(C)CCO)c(Cl)c1F (stereo not drawn) [Example 103, 6-[3-Chloro-2-fluoro-4-(4-hydroxy-2,2-dimethylbutoxy)phenyl]-5-methyl-4,5-dihydro-2H-pyridazin-3-one] | 8.59

Results, then the compound that gave them:

Row | pIC50 | Compound
9 | 8.52 | CC1CC(=O)NN=C1c1cc(F)c(OCCCO)c(Br)c1 (stereo not drawn) [Example 11, 6-[3-Bromo-5-fluoro-4-(3-hydroxypropoxy)phenyl]-5-methyl-4,5-dihydro-2H-pyridazin-3-one]
10 | 8.52 | Cc1cc(C2=NNC(=O)CC2C)c(F)c(C)c1OCC(C)(C)O (stereo not drawn) [Example 132, 6-[2-Fluoro-4-(2-hydroxy-2-methylpropoxy)-3,5-dimethylphenyl]-5-methyl-4,5-dihydro-2H-pyridazin-3-one]
11 | 8.41 | Cc1cc(C2=NNC(=O)CC2C)c(F)c(C)c1OCC(C)(C)CO (stereo not drawn) [Example 138, 6-[2-Fluoro-4-(3-hydroxy-2,2-dimethylpropoxy)-3,5-dimethylphenyl]-5-methyl-4,5-dihydro-2H-pyridazin-3-one]
12 | 9.00 | Cc1cc(C2=NNC(=O)CC2C)c(F)c(Cl)c1OCC(C)(C)O (stereo not drawn) [Example 36, 6-[3-chloro-2-fluoro-4-(2-hydroxy-2-methylpropoxy)-5-methylphenyl]-5-methyl-4,5-dihydro-2H-pyridazin-3-one]
13 | 8.77 | CC1CC(=O)NN=C1c1ccc(OCC(C)(C)O)c(Br)c1F (stereo not drawn) [Example 24, 6-[3-bromo-2-fluoro-4-(2-hydroxy-2-methylpropoxy)phenyl]-5-methyl-4,5-dihydro-2H-pyridazin-3-one]
14 | 8.44 | CC(O)COc1c(F)cc(C2=NNC(=O)CC2C)c(F)c1Cl (stereo not drawn) [Example 149, 6-[3-Chloro-2,5-difluoro-4-(2-hydroxypropoxy)phenyl]-5-methyl-4,5-dihydro-2H-pyridazin-3-one]
15 | 8.64 | C[C@@H]1CC(=O)NN=C1c1ccc(OCC(C)(C)O)c(F)c1F [Example 124, (5R)-(−)-6-[2,3-difluoro-4-(2-hydroxy-2-methylpropoxy)phenyl]-5-methyl-4,5-dihydro-2H-pyridazin-3-one]

— patent US10611731B2, “5-methyl-6-phenyl-4,5-dihydro-2H-pyridazin-3-one derivative” (OTSUKA PHARMACEUTICAL CO., LTD., priority 2016, dated 2020)
